Reference: publication PMC11340245, “Studies of Protein Binding to Biomimetic Membranes Using a Group of Uniform Materials Based on Organic Salts Derived From 8-Anilino-1-naphthalenesulfonic Acid” (Applied Spectroscopy, 2024)

Test: Thermal stability by thermogravimetric analysis (TGA)
Assay type: physicochemical
Details: heated from 25 to 595 °C, ramp rate 10 °C min^–1
Procedure: The thermal stability of [N4444][ANS] and [P4444][ANS] was investigated using a TA Discovery TGA 550 instrument. GUMBOS were heated from 25 to 595 °C using a ramp rate of 10 °C min^–1. The melting points of these compounds were also determined using a MEL-TEMP apparatus. Membrane partition and competitive binding assays were performed on a BioTek Cytation 3 imaging reader.
Thermal behaviors of [N4444][ANS] and [P4444][ANS] GUMBOS were further investigated using TGA. Figure S14 and Table S2 (Supplemental Material) present the weight loss curves and temperatures at which GUMBOS weight was reduced by 50% (T50%), respectively.

| T50% (half weight loss temperature) | Structure (SMILES) |
| --- | --- |
| 308 ºC | CCCC[N+](CCCC)(CCCC)CCCC.O=S(=O)([O-])c1cccc2cccc(Nc3ccccc3)c12 [[N4444][ANS]] |
| 422 ºC | CCCC[P+](CCCC)(CCCC)CCCC.O=S(=O)([O-])c1cccc2cccc(Nc3ccccc3)c12 [[P4444][ANS]] |
